Measurements published in patent US20190374509A1, “Methods of Using Metamizole for Treatment of Pyrexia in Equines” (Kindred Biosciences, Inc., priority 2018, published 2019).
Where two headings read alike, the source gives them in different places.

Columns and labels:
Type in all cases: in vivo
horses [1] = assay: Pyrexia efficacy Study 1 (unmasked, single IV dose, rectal temperature); settings: 30 mg/kg IV single dose; for Mean (± SD) temperature change from baseline: horses with rectal temperature ≥102.0° F.
Protocol: Study 1: The unmasked laboratory study was conducted at a clinical research organization in the United States. Institutional Animal Care and Use Committee (IACUC) approval was obtained prior to the conduct of the study. Horses one year of age or older were comingled by the Investigator in order to facilitate transmission of respiratory infections. Horses were monitored by the study staff for elevation of rectal temperature. All horses received treatment once the rectal temperature was ≥102.0° F. A single dose of dipyrone was administered intravenously (30 mg/kg IV). Rectal temperature was monitored 1, 2, 3, and 6 hours post-treatment administration.
(§1) In both studies horses were assessed daily to determine overall safety. Medications that could have impacted the temperature or the underlying cause of the disease were not permitted in either study; however, horses in both studies were eligible for rescue at the discretion of the Investigator. Following completion of the study, the Investigator treated the horses with standard of care for the type, and severity, of clinical signs. Statistical analysis was performed with the Wilcoxon rank sum test (SAS®, SAS Institute, Cary N.C., version 9.4).

horses [2] = settings: 8 horses per group
Protocol: A study was conducted to evaluate the margin of safety of metamizole when administered intravenously to horses for 9 days at doses of 0 mg/kg (0×), 30 mg/kg (1×), 60 mg/kg (2×), and 90 mg/kg (3×) of body weight three times daily (TID), every 8 hours±30 min.
Treatment phase involved administration of the investigational drug or placebo. The investigational drug was a sterile injectable formulation of dipyrone (Zimeta™, Corden Pharma, Caponago, Italy) (500 mg/mL) in 100 mL glass bottles. The placebo was sterile injectable saline (Nova-Tech Inc, Grand Island, NE) (0.9% sodium chloride) in 500 mL plastic bottles labeled for veterinary use. Dipyrone treatment groups were 30 mg/kg (1×), 60 mg/kg (2×), and 90 mg/kg (3×). Placebo treatment group was saline administered at a volume to match the 3× dipyrone group (0×). The dose was calculated based on body weight and administered three times daily for nine consecutive days. Due to the large volume of injection at the higher dose groups, treatment was administered via indwelling intravenous (IV) catheters. Intravenous catheters were placed using standard techniques. Horses were sedated with xylazine (AnaSed® LA, VetOne, MWI, Boise, Id.) and the skin was desensitized with subcutaneous injection of lidocaine (VetOne, MWI, Boise, Id.). Intravenous catheters were replaced at the discretion of the study director and were maintained with heparinized saline flush prior to and following dose administration.
Randomization occurred on Study Day −1. […] .
All 32 horses were acclimated prior to study initiation and started the treatment phase healthy. During the study, numerous horses in all groups including placebo developed clinical signs of pneumonia likely due to exposure and incubation of respiratory pathogens prior to the start of the treatment phase. The mean time to development of pneumonia was 6.9 days with a range of 4.3 to 8.3 days. […] The other 31 horses completed the study. At the second gastroscopy examination, completed just prior to the treatment phase, one horse was noted to have purulent material draining from the guttural pouch. […]

horses [3] = assay: Pyrexia efficacy Study 2 (masked, randomized, placebo controlled, crossover, rectal temperature); settings: for Mean (standard deviation) temperature: 30 mg/kg IV single dose
Protocol: Study 2: The masked, randomized, placebo controlled laboratory study was conducted at a clinical research organization in the United States. IACUC approval was obtained prior to the conduct of the study. Horses one year of age or older were comingled by the Investigator in order to facilitate transmission of respiratory infections. Horses were monitored by the study staff for elevation of rectal temperature. […] Unblinded dose administrators administered the study drug (Phase 1). A single dose of study drug was administered. Treatment was either dipyrone (30 mg/kg IV) or placebo (saline, matched volume, IV). Blinded personnel recorded the rectal temperature at 4 and 6 hours post-treatment administration. Twenty-four hours following Dose 1 horses were monitored for rectal temperature. Horses with rectal temperature≥102.0° F. were crossed over to the other treatment group. Unblinded dose administrators administered the study drug (Phase 2), and blinded personnel recorded the rectal temperature 4 and 6 hours post-treatment administration. […] Blinding was maintained until the completion of the statistical analysis.
as §1

In the case of `Cc1c(N(C)CS(=O)(=O)O)c(=O)n(-c2ccccc2)n1C` [dipyrone, [(2,3-dihydro-1,5-dimethyl-3-oxo-2-phenyl-1H-pyrazol-4-yl)methylamino] methanesulfonic acid], the “Mean (± SD) temperature change from baseline” value (“Mean (± SD) temperature change” for short) (horses [1]; Hour 1) is reported as −1.1 (± 0.5) ° F, the “Mean (± SD) temperature change” value (horses [1]; Hour 2) is reported as −1.4 (± 1.0) ° F and the “Mean (± SD) temperature change” value (horses [1]; Hour 3) is reported as −1.9 (± 1.0) ° F. The “Mean (± SD) temperature change” value (horses [1]; Hour 6) was −1.9 (± 1.1) ° F, the Fever reduction post-dose (horses [1]; Hours 1, 2, 3, 6) was “significantly reduced fever at all measured timepoints post-dose” and the “Horses with reduced fever (>1° F.)” value (horses [1]; eight horses, Hour 6) was 87.5%. For the same compound, the “Horses with return to normothermia (≥2° F.)” value (horses [1]; eight horses, Hour 6) was 75%, the “Nasal Discharge, number of horses” value (horses [2]; 1X, 30 mg/kg IV every 8 hours) was 1 and the “Nasal Discharge, number of horses” value (horses [2]; 2X, 60 mg/kg IV every 8 hours) was 2. For the same compound, the “Nasal Discharge, number of horses” value (horses [2]; 3X, 90 mg/kg IV every 8 hours) was 1, the “Mean (standard deviation) temperature” value (horses [3]; Phase 1, hour 4) was 100.0 ° F and the “Mean (standard deviation) temperature” value (horses [3]; Phase 1, hour 6) was 100.8 ° F. The “Mean (standard deviation) temperature” value (horses [3]; Phase 2 (crossover), hour 4) was 100.4 ° F, the “Mean (standard deviation) temperature” value (horses [3]; Phase 2 (crossover), hour 6) was 100.8 ° F and the “Rectal temperature compared to controls” value (horses [3]; 30 mg/kg IV, both phases, Hour 4, p<0.0001) was “significantly lowered rectal temperatures”.
